For 18 compounds, TGI results are on record in PubChem BioAssay (NCI).

Among the test systems are K-562 leukemia; OVCAR-5 ovarian; ACHN renal; UO-31 renal; CAKI-1 renal; HL-60(TB) leukemia; UACC-62 melanoma; SK-MEL-28 melanoma; RPMI-8226 leukemia; MOLT-4 leukemia; SN12C renal.
Common to all, as to assay: NCI anticancer screen, dose series, 48 h

Structures are written as SMILES.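 1) Cells in 96-well plates. 2) Compound, 48 h, 5 concentrations. 3) Linear interpolation between surrounding doses. 4) Unreached endpoint = highest concentration. TGI: total growth inhibition.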

As for `CNC(=O)C(C)NC(=O)C(Cc1ccccc1)NC(=O)c1ccccc1` (stereo not drawn), the TGI in the test on K-562 leukemia, with OVCAR-5 ovarian, with ACHN renal, in the test on UO-31 renal, with CAKI-1 renal and with HL-60(TB) leukemia was above 100 µM in each case. The TGI in the test with UACC-62 melanoma, in the test with SK-MEL-28 melanoma, with RPMI-8226 leukemia, in the test on MOLT-4 leukemia and in the test with SN12C renal was above 100 µM in each case.
On to `NC(=O)C1CCCN1C(=O)C(Cc1cnc[nH]1)NC(=O)C1CCCC1` (stereo not drawn), for which the TGI in the test on K-562 leukemia, in the test on OVCAR-5 ovarian, with ACHN renal, with UO-31 renal, with CAKI-1 renal and in the test on HL-60(TB) leukemia was above 100 µM each time. For the same compound, the TGI with UACC-62 melanoma, in the test with SK-MEL-28 melanoma, in the test on RPMI-8226 leukemia, in the test with MOLT-4 leukemia and with SN12C renal was above 100 µM each time.
As to `NC1N=C(c2ccc(Cl)cc2)C2=C(N1)c1ccccc1CC2` (stereo not drawn), the TGI was above 26.1 µM with K-562 leukemia; above 100 µM with OVCAR-5 ovarian; above 100 µM with ACHN renal; above 88.7 µM in the test on UO-31 renal; above 100 µM in the test with CAKI-1 renal; 10.6 µM with HL-60(TB) leukemia. The TGI with UACC-62 melanoma is above 100 µM; in the test with SK-MEL-28 melanoma, above 100 µM; with RPMI-8226 leukemia, 12.2 µM; with MOLT-4 leukemia it was above 31.4 µM; in the test on SN12C renal, above 100 µM.
For the compound `O=C1/C(=C/c2cccc(Cl)c2)CCCc2ccccc21`, the TGI turned out to be 34 µM in the test on K-562 leukemia; 31.2 µM in the test with OVCAR-5 ovarian; 29.6 µM in the test with ACHN renal; 30.1 µM in the test with UO-31 renal; 94.5 µM in the test on CAKI-1 renal; 30.7 µM in the test with HL-60(TB) leukemia. For the same compound, the TGI with UACC-62 melanoma was determined as 27 µM; in the test with SK-MEL-28 melanoma, 33.6 µM; in the test with RPMI-8226 leukemia, 42.5 µM; in the test with MOLT-4 leukemia it was 53.7 µM; with SN12C renal it was 32.3 µM.
Consider `CCOC(=O)c1nc2cc(C(F)(F)F)ccc2nc1Oc1ccc(C#N)cc1`, for which the TGI with K-562 leukemia, in the test with OVCAR-5 ovarian, with ACHN renal, with UO-31 renal, in the test on CAKI-1 renal and in the test on HL-60(TB) leukemia was above 100 µM each time. Also, the TGI with UACC-62 melanoma, with SK-MEL-28 melanoma, with RPMI-8226 leukemia, with MOLT-4 leukemia and in the test on SN12C renal was above 100 µM throughout.
Turning to `C[C@H](C1CC(C)(O)C(C)(O)C(O)O1)[C@H]1CC[C@H]2[C@@H]3[C@@H]4O[C@@H]4[C@@]4(O)CC=CC(=O)[C@]4(C)[C@H]3CC[C@]12C` (stereo partly drawn), the TGI with K-562 leukemia, with OVCAR-5 ovarian, with ACHN renal, in the test with UO-31 renal, in the test with CAKI-1 renal and in the test with HL-60(TB) leukemia was above 50 µM throughout. Further, the TGI in the test on UACC-62 melanoma, in the test with SK-MEL-28 melanoma, in the test on RPMI-8226 leukemia, in the test on MOLT-4 leukemia and in the test on SN12C renal was above 50 µM throughout.
In the case of `C=CCOC(=O)CC[C@H](NC(=O)[C@@H](CCC(F)(F)F)Cc1ccc(O)cc1)C(=O)OCC=C`, the TGI in the test on K-562 leukemia, in the test on OVCAR-5 ovarian, in the test on ACHN renal, with UO-31 renal, with CAKI-1 renal and in the test with HL-60(TB) leukemia was above 100 µM throughout. Moreover, the TGI with UACC-62 melanoma was above 100 µM; with SK-MEL-28 melanoma, 45.6 µM; in the test with RPMI-8226 leukemia it was 74.6 µM; in the test on MOLT-4 leukemia, 79.8 µM; in the test on SN12C renal it was above 100 µM.
With `CN(C)C(C1=C(O)C(c2ccccc2)N(c2ccccc2)C1=O)N1CCOCC1` (stereo not drawn), the TGI in the test on K-562 leukemia, with OVCAR-5 ovarian, in the test with ACHN renal, in the test on UO-31 renal, in the test with CAKI-1 renal and in the test with HL-60(TB) leukemia was above 10 µM in each case. Moreover, the TGI with UACC-62 melanoma, with SK-MEL-28 melanoma, in the test on RPMI-8226 leukemia, in the test on MOLT-4 leukemia and in the test with SN12C renal was above 10 µM each time.
For the compound `CCN1CCC(O)(c2ccc(Oc3ccc(Cl)cc3)cc2)C(C(=O)c2ccc(Oc3ccc(Cl)cc3)cc2)C1` (stereo not drawn), the TGI in the test on K-562 leukemia is above 100 µM; in the test with OVCAR-5 ovarian, 26.4 µM; in the test with ACHN renal, 28.2 µM; with UO-31 renal, 28.1 µM; in the test on CAKI-1 renal, 27.3 µM; with HL-60(TB) leukemia, 4.46 µM. Further, the TGI came to 24.8 µM in the test on UACC-62 melanoma; 58.6 µM in the test with SK-MEL-28 melanoma; 10.9 µM in the test on RPMI-8226 leukemia; 43.9 µM in the test with MOLT-4 leukemia; 26.9 µM in the test on SN12C renal.
Consider `C=CCN(c1cc(OC)c(NC(C)=O)cc1[N+](=O)[O-])S(C)(=O)=O`, for which the TGI with K-562 leukemia, in the test with OVCAR-5 ovarian, with ACHN renal, with UO-31 renal, in the test with CAKI-1 renal and with HL-60(TB) leukemia was above 100 µM in each case. For the same compound, the TGI with UACC-62 melanoma, in the test on SK-MEL-28 melanoma, in the test with RPMI-8226 leukemia, in the test with MOLT-4 leukemia and in the test on SN12C renal was above 100 µM each time.
On to `OC1(C(Sc2cc(C(F)(F)F)cc(C(F)(F)F)c2)Sc2cc(C(F)(F)F)cc(C(F)(F)F)c2)C=CCCC1` (stereo not drawn), for which the TGI in the test on K-562 leukemia turned out to be 5.42 µM; in the test on OVCAR-5 ovarian it was 6.6 µM; in the test on ACHN renal it was 5.77 µM; in the test with UO-31 renal, 3.66 µM; with CAKI-1 renal it was 6.33 µM; in the test with HL-60(TB) leukemia, 3.97 µM. Further, the TGI turned out to be 7.79 µM with UACC-62 melanoma; 9.12 µM in the test on SK-MEL-28 melanoma; 4.8 µM with RPMI-8226 leukemia; 5.08 µM in the test with MOLT-4 leukemia; 6.77 µM with SN12C renal.
As to `CCOC(=O)C1(C#N)OC(=O)c2cnccc21` (stereo not drawn), the TGI in the test on K-562 leukemia, in the test on OVCAR-5 ovarian, with ACHN renal, in the test with UO-31 renal, in the test with CAKI-1 renal and in the test on HL-60(TB) leukemia was above 100 µM throughout. Moreover, the TGI in the test on UACC-62 melanoma, in the test on SK-MEL-28 melanoma, in the test on RPMI-8226 leukemia, with MOLT-4 leukemia and with SN12C renal was above 100 µM throughout.
On to `CCn1cc2c(=O)n3ncn(-c4ccc(Br)cc4)c3nc2n1`, for which the TGI in the test on K-562 leukemia, in the test on OVCAR-5 ovarian, with ACHN renal, with UO-31 renal, in the test with CAKI-1 renal and with HL-60(TB) leukemia was above 100 µM each time. Besides, the TGI in the test on UACC-62 melanoma, in the test on SK-MEL-28 melanoma, in the test on RPMI-8226 leukemia, in the test with MOLT-4 leukemia and with SN12C renal was above 100 µM in each case.
Turning to `CCOC(=O)c1cc(C2CCN(c3ccccc3)C2=O)c(/C(O)=C/C(C)=O)[nH]1` (stereo not drawn), the TGI in the test with K-562 leukemia was above 100 µM; with OVCAR-5 ovarian, above 100 µM; with ACHN renal, above 100 µM; in the test with UO-31 renal, above 100 µM; in the test with CAKI-1 renal it was above 100 µM; in the test with HL-60(TB) leukemia, 76 µM. Further, the TGI with UACC-62 melanoma, in the test on SK-MEL-28 melanoma, in the test with RPMI-8226 leukemia, in the test with MOLT-4 leukemia and with SN12C renal was above 100 µM throughout.
As for `COc1ccc(C2SC(N)=Nc3c2c(C)nn3C(=O)c2ccccc2O)cc1OC` (stereo not drawn), the TGI in the test with K-562 leukemia, in the test with OVCAR-5 ovarian, in the test on ACHN renal, in the test with UO-31 renal, in the test on CAKI-1 renal and in the test with HL-60(TB) leukemia was above 10 µM each time. For the same compound, the TGI was 7.93 µM in the test on UACC-62 melanoma; above 10 µM in the test with SK-MEL-28 melanoma; above 10 µM with RPMI-8226 leukemia; above 10 µM with MOLT-4 leukemia; above 10 µM with SN12C renal.
For `O=c1ccc2ccc(OP(=O)(O)O)cc2o1`, the TGI with K-562 leukemia, in the test on OVCAR-5 ovarian, in the test on ACHN renal, with UO-31 renal, in the test with CAKI-1 renal and in the test on HL-60(TB) leukemia was above 100 µM in each case. Further, the TGI in the test on UACC-62 melanoma, in the test with SK-MEL-28 melanoma, in the test with RPMI-8226 leukemia, with MOLT-4 leukemia and in the test with SN12C renal was above 100 µM each time.
For the compound `Cc1cc(NC2=CC(=O)C(=O)c3ccccc32)no1`, the TGI in the test with K-562 leukemia is 20.1 µM; in the test with OVCAR-5 ovarian, 18.1 µM; with ACHN renal it was 25.8 µM; with UO-31 renal, 20.4 µM; in the test with CAKI-1 renal, 17.1 µM; with HL-60(TB) leukemia, above 29.6 µM. Also, the TGI in the test with UACC-62 melanoma stood at 9.27 µM; in the test with SK-MEL-28 melanoma it was 31.6 µM; in the test with RPMI-8226 leukemia, 32.5 µM; in the test with MOLT-4 leukemia it was 31.7 µM; in the test with SN12C renal, 7.1 µM.
Turning to `N#CC12C(=O)N3C(=NC(c4ccco4)NC3c3ccco3)C1(C#N)C(c1ccco1)NC1=C2CCCC1` (stereo not drawn), the TGI in the test with K-562 leukemia, in the test on OVCAR-5 ovarian, in the test with ACHN renal, in the test with UO-31 renal, in the test on CAKI-1 renal and with HL-60(TB) leukemia was above 100 µM throughout. The TGI with UACC-62 melanoma, in the test with SK-MEL-28 melanoma, in the test with RPMI-8226 leukemia, in the test with MOLT-4 leukemia and in the test with SN12C renal was above 100 µM throughout.
